Measurements published in patent EP0007205A1, “Optically active phenethanolamines, their formulations, use and preparation” (ELI LILLY AND COMPANY, priority 1978, dated 1980).
Read-outs that look alike come from different tables or passages of the source.

Columns and labels:
dogs [1] = assay: Inotropic potency in anesthetized dogs and conscious dogs with implanted cardiovascular transducers; format: in vivo; details: for ED50: read-out: Cardiac Contractile Potency mcg/kg ED50; for Blood Pressure Change mm/hg at ED50 / Heart rate Change beats/min. at ED50: at the contractile ED50
Experimental: The heart rate, arterial pressure, cardiac output, and the derivative of left ventricular pressure (which is the index of cardiac contractility), were measured.

dogs [2] = assay: Physical conditioning of dogs (treadmill exercise, chronic oral dosing); format: in vivo
Excerpt: In a typical experiment, a group of ten dogs were implanted with miniature pressure transducers in their left ventricle so that measurements of heart rate, systolic pressure and the derivative of left ventricular pressure (the index of cardiac contractility) could be made. The dogs were trained to walk on a treadmill. Five of the dogs were randomly selected to receive a compound of this invention, for instance R,R-N-[2-(4-hydroxyphenyl)-2-hydroxyethyl]-1-methyl-3-(4-hydroxyphenyl)propylaminium chloride. The test animals received saline filled capsules during the first week of the test. During the second and third weeks, the dogs received the test compound orally at a dose of 10 mcg./kg. twice each day. The dosage was increased to 40 mcg./kg. twice each day for the fourth week, and increased to 60 mcg./kg. twice each day through weeks five to eleven. The other five dogs received saline filled capsules throughout the study. Once each week, the animals' response to exercise on . the treadmill was evaluated. Resting data were obtained by permitting the dogs to lie on the treadmill before turning it on. The treadmill then was run at a speed of 3.5 kilometers/hr., with the dogs walking at this speed with no elevation for 5 min., and then for 5 min. at a 20% incline. During the eleventh week of such test, the dogs were made to walk on a 40% incline, thus providing sufficient stress to increase plasma lactic acid and catecholamines. Blood samples prior to each exercise and within two minutes of completing the exercise were taken from the jugular vein.
After several weeks, the dogs were anesthetized and measurements of ventricular function and skeletal muscle blood flow and enzymes were made.

[3] = Canis lupus familiaris, dogs, dose giving a 50% increase in contractile force (derivative of left ventricular pressure)

Structure (SMILES) | ED50 (dogs [1]; [3]) | Blood Pressure Change mm/hg at ED50 (dogs [1]; dogs) | Heart rate Change beats/min. at ED50 (dogs [1]; dogs) | further results
C[C@@H](CCc1ccc(C(N)=O)cc1)NC[C@H](O)c1ccccc1 [R,S-N-(2-phenyl-2-hydroxyethyl)-1-methyl-3-(4-aminocarbonylphenyl)propylamine, reference compound] |  |  |  | ED (max) (dogs [1]; Canis lupus familiaris, dogs, EDmax: a 50% increase in contractile force could not be achieved, dose giving the maximal increase, read-out: Cardiac Contractile Potency mcg/kg (EDmax)): 1980 µg/kg; Blood Pressure Change mm/hg (EDmax) (dogs [1]; dogs, at EDmax dose): -30 (EDmax) mm/hg; Heart rate Change beats/min. (EDmax) (dogs [1]; dogs, at EDmax dose): 24 (EDmax) beats/min.
C[C@H](CCc1ccc(O)cc1)NC[C@H](O)c1ccccc1 [R,R-N-(2-phenyl-2-hydroxyethyl)-1-methyl-3-(4-hydroxyphenyl)propylamine] | 6 µg/kg | -13 mm/hg | 15 beats/min. | 
C[C@@H](CCc1ccc(O)cc1)NC[C@H](O)c1ccc(O)cc1 [R,S-N-[2-(4-hydroxyphenyl)-2-hydroxyethyl]-1-methyl-3-(4-hydroxyphenyl)propylamine, reference compound] |  | -2 mm/hg | 15 beats/min. | ED50 (dogs [1]; Canis lupus familiaris): 11 µg/kg
C[C@H](CCc1ccc(O)cc1)NC[C@H](O)c1ccc(O)cc1 [R,R-N-[2-(4-hydroxyphenyl)-2-hydroxyethyl]-1-methyl-3-(4-hydroxyphenyl)propylamine] |  | -5 mm/hg | 15 beats/min. | ED50 (dogs [1]; Canis lupus familiaris): 0.32 µg/kg
C[C@H](CCc1ccc(O)cc1)NC[C@H](O)c1ccc(O)cc1.Cl [R,R-N-[2-(4-Hydroxyphenyl)-2-hydroxyethyl]-1-methyl-3-(4-hydroxyphenyl)propylaminium chloride] |  |  |  | Skeletal Muscle Blood Flow (ml./min./100 g.) (dogs [2]; conditioned dogs, anesthetized after several weeks, p<0.01): 2.5 ml./min./100 g.; Heart Rate (beats/min.) at rest (dogs [2]; conditioned dogs, at rest, p<0.01): 55 beats/min.; Heart Rate (beats/min.) at 20° walk (dogs [2]; conditioned dogs, treadmill walk at 20°, p<0.01): 150 beats/min.; Blood Lactic Acid (mg.%) at rest (dogs [2]; dogs, oral 10 then 40 then 60 mcg./kg. twice each day over eleven weeks, at rest, p<0.01 printed for lactic acid): 5.2 mg.%; Plasma Norepinephrine (picograms/ml.) at rest (dogs [2]; dogs, oral 10 then 40 then 60 mcg./kg. twice each day over eleven weeks, at rest, p<0.05 printed for norepinephrine): 235 picograms/ml.; Blood Lactic Acid (mg.%) during exercise (dogs [2]; dogs, oral 10 then 40 then 60 mcg./kg. twice each day over eleven weeks, during treadmill exercise, p<0.01 printed for lactic acid): 6.3 mg.%; Plasma Norepinephrine (picograms/ml.) during exercise (dogs [2]; dogs, oral 10 then 40 then 60 mcg./kg. twice each day over eleven weeks, during treadmill exercise, p<0.05 printed for norepinephrine): 200 picograms/ml.; Succinic Dehydrogenase Activity (µM/mgP/min.) (dogs [2]; skeletal muscle of conditioned dogs, p<0.01): 3.3 µM/mgP/min.
C[C@@H](CCc1ccc(O)cc1)NC[C@H](O)c1ccccc1 [R,S-N-[2-phenyl-2-hydroxyethyl)-1-methyl-3-(4-hydroxyphenyl)propylamine, reference compound] | 350 µg/kg | -20 mm/hg | 18 beats/min. | 
C[C@H](CCc1ccc(C(N)=O)cc1)NC[C@H](O)c1ccccc1 [R,R-N-(2-Phenyl-2-hydroxyethyl)-l-methyl-3-(4-aminocarbonylphenyl)propylamine] | 7 µg/kg | +3 mm/hg | 15 beats/min. | 
